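All cell lines were grown in 96-well plates and treated with compound for 48 hours. Definition used: TGI = concentration required for complete inhibition of growth.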
Key:
Assay in all cases: NCI tumour cell line growth inhibition, 48 h
SK-MEL-2 melanoma = tested on: SK-MEL-2 melanoma
M14 melanoma = tested on: M14 melanoma
HL-60(TB) leukemia = tested on: HL-60(TB) leukemia
COLO 205 colon = tested on: COLO 205 colon
OVCAR-3 ovarian = tested on: OVCAR-3 ovarian
HOP-62 NSCLC = tested on: HOP-62 NSCLC
OVCAR-8 ovarian = tested on: OVCAR-8 ovarian
OVCAR-5 ovarian = tested on: OVCAR-5 ovarian
LOX IMVI melanoma = tested on: LOX IMVI melanoma
RPMI-8226 leukemia = tested on: RPMI-8226 leukemia
HCT-116 colon = tested on: HCT-116 colon
NCI/ADR-RES ovarian = tested on: NCI/ADR-RES ovarian
MDA-MB-231 breast = tested on: MDA-MB-231 breast
UO-31 renal = tested on: UO-31 renal
A549 NSCLC = tested on: A549 NSCLC
K-562 leukemia = tested on: K-562 leukemia
HS 578T breast = tested on: HS 578T breast
786-0 renal = tested on: 786-0 renal
MDA-MB-435 = tested on: MDA-MB-435
BT-549 breast = tested on: BT-549 breast
IGROV1 ovarian = tested on: IGROV1 ovarian
KM12 colon = tested on: KM12 colon
MDA-N = tested on: MDA-N
A498 renal = tested on: A498 renal
MOLT-4 leukemia = tested on: MOLT-4 leukemia
MALME-3M melanoma = tested on: MALME-3M melanoma
CCRF-CEM leukemia = tested on: CCRF-CEM leukemia
SN12C renal = tested on: SN12C renal
NCI-H23 lung = tested on: NCI-H23 lung
SNB-19 CNS = tested on: SNB-19 CNS
TK-10 renal = tested on: TK-10 renal
SW-620 colon = tested on: SW-620 colon
SNB-75 CNS = tested on: SNB-75 CNS
PC-3 prostate = tested on: PC-3 prostate
CAKI-1 renal = tested on: CAKI-1 renal
SK-MEL-5 melanoma = tested on: SK-MEL-5 melanoma
RXF 393 renal = tested on: RXF 393 renal
U251 CNS = tested on: U251 CNS
HT29 colon = tested on: HT29 colon
NCI-H460 lung = tested on: NCI-H460 lung
SF-295 CNS = tested on: SF-295 CNS
NCI-H522 lung = tested on: NCI-H522 lung
DU-145 prostate = tested on: DU-145 prostate
SK-OV-3 ovarian = tested on: SK-OV-3 ovarian
SF-268 CNS = tested on: SF-268 CNS
EKVX NSCLC = tested on: EKVX NSCLC
OVCAR-4 ovarian = tested on: OVCAR-4 ovarian
UACC-257 melanoma = tested on: UACC-257 melanoma
MCF7 breast = tested on: MCF7 breast
HOP-92 NSCLC = tested on: HOP-92 NSCLC
ACHN renal = tested on: ACHN renal
HCT-15 colon = tested on: HCT-15 colon
SK-MEL-28 melanoma = tested on: SK-MEL-28 melanoma
UACC-62 melanoma = tested on: UACC-62 melanoma
T-47D breast = tested on: T-47D breast
SR leukemia = tested on: SR leukemia
HCC-2998 colon = tested on: HCC-2998 colon
SF-539 CNS = tested on: SF-539 CNS
NCI-H226 lung = tested on: NCI-H226 lung

With `N=C1C(O)C2(I)c3ccccc3N3C(=N)C(O)C4c5ccccc5N1C4C32` (stereo not drawn) the TGI (SK-MEL-2 melanoma) was > 100 µM, the TGI (M14 melanoma) was > 100 µM and the TGI (HL-60(TB) leukemia) was 79.4 µM. For the same molecule, the TGI (COLO 205 colon) was > 100 µM, the TGI (OVCAR-3 ovarian) was > 100 µM and the TGI (HOP-62 NSCLC) was > 100 µM. The TGI (OVCAR-8 ovarian) was > 100 µM, the TGI (OVCAR-5 ovarian) was > 100 µM and the TGI (LOX IMVI melanoma) was > 100 µM. For the same molecule, the TGI (RPMI-8226 leukemia) was > 100 µM, the TGI (HCT-116 colon) was > 100 µM and the TGI (NCI/ADR-RES ovarian) was > 100 µM. For the same molecule, the TGI (MDA-MB-231 breast) was 67.8 µM, the TGI (UO-31 renal) was > 100 µM and the TGI (A549 NSCLC) was > 100 µM. The TGI (K-562 leukemia) was > 100 µM, the TGI (HS 578T breast) was > 100 µM and the TGI (786-0 renal) was > 100 µM. For the same molecule, the TGI (MDA-MB-435) was 37.9 µM, the TGI (BT-549 breast) was > 100 µM and the TGI (IGROV1 ovarian) was > 100 µM. The TGI (KM12 colon) was 34.8 µM, the TGI (MDA-N) was > 100 µM and the TGI (A498 renal) was > 100 µM. The TGI (MOLT-4 leukemia) was > 100 µM, the TGI (MALME-3M melanoma) was > 100 µM and the TGI (CCRF-CEM leukemia) was 18.6 µM. The TGI (SN12C renal) was > 100 µM, the TGI (NCI-H23 lung) was > 100 µM and the TGI (SNB-19 CNS) was > 100 µM. The TGI (TK-10 renal) was > 100 µM, the TGI (SW-620 colon) was > 100 µM and the TGI (SNB-75 CNS) was > 100 µM. For the same molecule, the TGI (PC-3 prostate) was > 100 µM, the TGI (CAKI-1 renal) was > 100 µM and the TGI (SK-MEL-5 melanoma) was > 100 µM. For the same molecule, the TGI (RXF 393 renal) was > 100 µM, the TGI (U251 CNS) was 43.9 µM and the TGI (HT29 colon) was > 100 µM. The TGI (NCI-H460 lung) was > 100 µM, the TGI (SF-295 CNS) was > 100 µM and the TGI (NCI-H522 lung) was > 100 µM. For the same molecule, the TGI (DU-145 prostate) was > 100 µM, the TGI (SK-OV-3 ovarian) was > 100 µM and the TGI (SF-268 CNS) was > 100 µM. The TGI (EKVX NSCLC) was > 100 µM, the TGI (OVCAR-4 ovarian) was 30.1 µM and the TGI (UACC-257 melanoma) was > 100 µM. The TGI (MCF7 breast) was > 100 µM, the TGI (HOP-92 NSCLC) was > 100 µM and the TGI (ACHN renal) was > 100 µM. For the same molecule, the TGI (HCT-15 colon) was > 100 µM, the TGI (SK-MEL-28 melanoma) was > 100 µM and the TGI (UACC-62 melanoma) was > 100 µM. For the same molecule, the TGI (T-47D breast) was > 100 µM and the TGI (SR leukemia) was > 100 µM.

`N#Cc1c(-c2ccc(Cl)cc2)c2c(nn3c4ccc5ccccc5c4nnc23)[nH]c1=O` showed a TGI (SK-MEL-2 melanoma) of 5.77 µM, a TGI (HCC-2998 colon) of 8.87 µM and a TGI (M14 melanoma) of 6.14 µM. For the same molecule, the TGI (HL-60(TB) leukemia) was > 100 µM, the TGI (COLO 205 colon) was 10.6 µM and the TGI (OVCAR-3 ovarian) was 3.62 µM. It also gave a TGI (HOP-62 NSCLC) of 7.97 µM, a TGI (OVCAR-8 ovarian) of 6.98 µM and a TGI (OVCAR-5 ovarian) of 23.4 µM. For the same molecule, the TGI (SF-539 CNS) was 3.96 µM, the TGI (LOX IMVI melanoma) was 4.18 µM and the TGI (RPMI-8226 leukemia) was > 28.9 µM. For the same molecule, the TGI (HCT-116 colon) was 7.02 µM, the TGI (NCI/ADR-RES ovarian) was 26 µM and the TGI (MDA-MB-231 breast) was 20.6 µM. For the same molecule, the TGI (UO-31 renal) was 12.6 µM, the TGI (A549 NSCLC) was 20.8 µM and the TGI (K-562 leukemia) was > 69.6 µM. For the same molecule, the TGI (HS 578T breast) was 6.54 µM, the TGI (786-0 renal) was 6.16 µM and the TGI (MDA-MB-435) was 8.69 µM. It also gave a TGI (BT-549 breast) of 2.92 µM, a TGI (IGROV1 ovarian) of 4.06 µM and a TGI (KM12 colon) of 13.3 µM. The TGI (MDA-N) was 5.78 µM, the TGI (A498 renal) was 3.69 µM and the TGI (MOLT-4 leukemia) was > 46.4 µM. For the same molecule, the TGI (MALME-3M melanoma) was 3.83 µM, the TGI (CCRF-CEM leukemia) was > 100 µM and the TGI (NCI-H226 lung) was > 52.5 µM. The TGI (SN12C renal) was 12.2 µM, the TGI (NCI-H23 lung) was 4.56 µM and the TGI (SNB-19 CNS) was 24.2 µM. The TGI (TK-10 renal) was > 100 µM, the TGI (SW-620 colon) was 11.4 µM and the TGI (PC-3 prostate) was 7 µM. For the same molecule, the TGI (CAKI-1 renal) was 8.5 µM, the TGI (SK-MEL-5 melanoma) was 6.27 µM and the TGI (RXF 393 renal) was 3.72 µM. The TGI (U251 CNS) was 5.38 µM, the TGI (HT29 colon) was > 33.5 µM and the TGI (NCI-H460 lung) was 16.2 µM. It also gave a TGI (SF-295 CNS) of 5.47 µM, a TGI (NCI-H522 lung) of 3.56 µM and a TGI (DU-145 prostate) of 4.61 µM. The TGI (SK-OV-3 ovarian) was 7.99 µM, the TGI (SF-268 CNS) was 8.26 µM and the TGI (EKVX NSCLC) was 27.1 µM. The TGI (OVCAR-4 ovarian) was 21.6 µM, the TGI (UACC-257 melanoma) was 18.8 µM and the TGI (MCF7 breast) was 14.8 µM. It also gave a TGI (HOP-92 NSCLC) of 6.72 µM, a TGI (ACHN renal) of 8.76 µM and a TGI (HCT-15 colon) of 6.35 µM. The TGI (SK-MEL-28 melanoma) was 5.28 µM, the TGI (UACC-62 melanoma) was 3.24 µM and the TGI (T-47D breast) was 2.66 µM.

Source: PubChem BioAssay (NCI)
